Test results as given in patent publication US20260297095A1, “NOVEL PYRROLOTRIAZINE DERIVATIVE AND USE THEREOF” (Pelemed Co., Ltd., priority 2024, published 2026).
pIC50: −log10 of the molar value.

Key:
[1] = system: KYSE-70 esophageal cancer cell line; experiment: Cell growth inhibition of KYSE-70 (Sulforhodamine B); format: cell-based; details: Homo sapiens; KYSE-70, 72 hours; read-out: KYSE70 GI50
Outline: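 KYSE-70 cells (YES1-amplified) in RPMI-1640 with 10% FBS were seeded 24 h before treatment with compound at 0.0046–10 µM final. After 72 h, cells were TCA-fixed and stained with sulforhodamine B, with absorbance read at 510 nm. GI50 was derived with a time-zero plate set to 0% and the vehicle control to 100%, in duplicate tests.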

YES1 kinase = YES1 kinase (Homo sapiens, UniProt P07947); experiment: YES1 kinase inhibition, ADP Glo assay (Promega); format: biochemical; details: for pIC50: class symbols, read-out: YES1 enzyme, IC50; for inhibition at 0.001 µM / YES1 kinase inhibition at 1 nM (in words): compound 1 nM; for inhibition at 0.001 µM: read-out: YES1 enzyme, % inhibition, 1 nM; for inhibition at 0.01 µM: compound 10 nM, read-out: YES1 enzyme, % inhibition, 10 nM; for inhibition at 0.1 µM: compound 100 nM, read-out: YES1 enzyme, % inhibition, 100 nM
YES1 kinase, sequence (P07947 whole entry): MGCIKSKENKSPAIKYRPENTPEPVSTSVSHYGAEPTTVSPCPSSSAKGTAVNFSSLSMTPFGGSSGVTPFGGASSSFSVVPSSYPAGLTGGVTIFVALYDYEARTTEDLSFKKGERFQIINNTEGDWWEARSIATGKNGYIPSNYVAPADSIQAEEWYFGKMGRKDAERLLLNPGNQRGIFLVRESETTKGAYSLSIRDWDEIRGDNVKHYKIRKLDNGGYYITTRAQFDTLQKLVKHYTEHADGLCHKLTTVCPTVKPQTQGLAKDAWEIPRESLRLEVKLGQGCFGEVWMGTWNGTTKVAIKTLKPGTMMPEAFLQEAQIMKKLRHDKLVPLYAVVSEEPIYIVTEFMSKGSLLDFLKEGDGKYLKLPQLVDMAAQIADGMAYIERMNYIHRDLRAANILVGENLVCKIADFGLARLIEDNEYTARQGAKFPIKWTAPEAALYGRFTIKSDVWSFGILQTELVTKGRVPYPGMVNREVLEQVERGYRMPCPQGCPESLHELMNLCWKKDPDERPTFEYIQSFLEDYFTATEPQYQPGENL
Outline: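 ADP-Glo luminescence after a 40 min room-temperature reaction of YES1 with ATP and substrate (buffer with MnCl2 and DTT; 10 min compound preincubation) was used as readout. Percent inhibition at 1, 10 and 100 nM compound was calculated relative to negative control after background subtraction, and IC50 values derived.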

Row | GI50 [1] [nM] | pIC50 (YES1 kinase) | inhibition at 0.001 µM (YES1 kinase) [%] | inhibition at 0.01 µM (YES1 kinase) [%] | inhibition at 0.1 µM (YES1 kinase) [%] | Structure (SMILES) | YES1 kinase inhibition at 1 nM (in words) (YES1 kinase)
1 | ≤ 100 | ≥ 7.00 | 37 | 51 | – | COc1cc(-c2cc(N3CCC(CCN(C)C)CC3)n3ncnc(N)c23)ccc1NC(=O)OC(C)(C)C [Example 109, tert-butyl (4-(4-amino-7-(4-(2-(dimethylamino)ethyl)piperidin-1-yl)pyrrolo[2,1-f][1,2,4]triazin-5-yl)-2-methoxyphenyl)carbamate] | –
2 | 100 to 1000 | – | – | 21 | 44 | COc1cc(-c2cc(N3CC[C@H](N(C)C)C3)n3ncnc(N)c23)ccc1NC(=O)OC(C)(C)C [Example 11, tert-butyl (S)-(4-(4-amino-7-(3-(dimethylamino)pyrrolidin-1-yl)pyrrolo[2,1-f][1,2,4]triazin-5-yl)-2-methoxyphenyl)carbamate] | –
3 | ≤ 100 | – | – | 62 | 87 | Nc1ncnn2c(N3CCC(N)CC3)cc(-c3ccc(Oc4ccccc4)cc3)c12 [Example 135, 7-(4-aminopiperidin-1-yl)-5-(4-phenoxyphenyl)pyrrolo[2,1-f][1,2,4]triazin-4-amine] | –
4 | ≤ 100 | ≥ 7.00 | – | – | – | CNC1(C)CCN(c2cc(-c3ccc(NC(=O)OC(C)(C)C)c(OC)c3)c3c(N)ncnn23)CC1 [Example 105, tert-butyl (4-(4-amino-7-(4-methyl-4-(methylamino)piperidin-1-yl)pyrrolo[2,1-f][1,2,4]triazin-5-yl)-2-methoxyphenyl)carbamate] | –
5 | ≤ 100 | – | – | 70 | 88 | COc1cc(-c2cc(CCN3CCC(N)CC3)n3ncnc(N)c23)ccc1NC(=O)OC(C)(C)C [Example 100, tert-butyl (4-(4-amino-7-(2-(4-aminopiperidin-1-yl)ethyl)pyrrolo[2,1-f][1,2,4]triazin-5-yl)-2-methoxyphenyl)carbamate] | –
6 | 1000 to 10000 | – | – | 28 | 49 | COc1cc(-c2cc(-c3ccc4c(c3)OCCN4C)n3ncnc(N)c23)ccc1NC(=O)OC(C)(C)C [Example 7, tert-butyl (4-(4-amino-7-(4-methyl-3,4-dihydro-2H-benzo[b][1,4]oxazin-7-yl)pyrrolo[2,1-f][1,2,4]triazin-5-yl)-2-methoxyphenyl)carbamate] | –
7 | 1000 to 10000 | – | – | 8 | 38 | COc1cc(-c2cc(N3CC[C@@H](N(C)C)C3)n3ncnc(N)c23)ccc1NC(=O)OC(C)(C)C [Example 10, tert-butyl (R)-(4-(4-amino-7-(3-(dimethylamino)pyrrolidin-1-yl)pyrrolo[2,1-f][1,2,4]triazin-5-yl)-2-methoxyphenyl)carbamate] | –
8 | ≤ 100 | ≥ 7.00 | – | 80 | 92 | COc1cc(-c2cc(N3CCC(C)(N)CC3)n3ncnc(N)c23)ccc1NC(=O)OC(C)(C)C [Example 45, tert-butyl (4-(4-amino-7-(4-amino-4-methylpiperidin-1-yl)pyrrolo[2,1-f][1,2,4]triazin-5-yl)-2-methoxyphenyl)carbamate] | –
9 | 100 to 1000 | – | – | 19 | 77 | CCN(CC)C1CCN(c2cc(-c3ccc(NC(=O)OC(C)(C)C)c(OC)c3)c3c(N)ncnn23)CC1 [Example 14, tert-butyl (4-(4-amino-7-(4-(diethylamino)piperidin-1-yl)pyrrolo[2,1-f][1,2,4]triazin-5-yl)-2-methoxyphenyl)carbamate] | –
10 | ≤ 100 | ≥ 7.00 | 43 | 66 | – | COc1cc(-c2c(C)c(N3CCC(N)CC3)n3ncnc(N)c23)ccc1NC(=O)OC(C)(C)C [Example 74, tert-butyl (4-(4-amino-7-(4-aminopiperidin-1-yl)-6-methylpyrrolo[2,1-f][1,2,4]triazin-5-yl)-2-methoxyphenyl)carbamate] | could be inhibited even at a low concentration of 1 nM
11 | 100 to 1000 | – | 30 | 63 | – | COc1cc(-c2cc(N[C@H]3CC[C@H](N)C3)n3ncnc(N)c23)ccc1NC(=O)OC(C)(C)C [Example 116, tert-butyl (4-(4-amino-7-(((1S,3S)-3-aminocyclopentyl)amino)pyrrolo[2,1-f][1,2,4]triazin-5-yl)-2-methoxyphenyl)carbamate] | could be inhibited even at a low concentration of 1 nM
12 | ≤ 100 | ≥ 7.00 | – | 59 | 78 | COc1cc(-c2cc(N3CC[C@H](N)[C@@H](C(F)(F)F)C3)n3ncnc(N)c23)ccc1NC(=O)OC(C)(C)C [Example 85, tert-butyl (4-(4-amino-7-((3S,4S)-4-amino-3-(trifluoromethyl)piperidin-1-yl)pyrrolo[2,1-f][1,2,4]triazin-5-yl)-2-methoxyphenyl)carbamate] | –
13 | ≤ 100 | – | – | 29 | 60 | COc1cc(-c2cc(N3CCC4(CCNC4=O)CC3)n3ncnc(N)c23)ccc1NC(=O)OC(C)(C)C [Example 53, tert-butyl (4-(4-amino-7-(1-oxo-2,8-diazaspiro[4.5]decan-8-yl)pyrrolo[2,1-f][1,2,4]triazin-5-yl)-2-methoxyphenyl)carbamate] | –
14 | 100 to 1000 | ≥ 7.00 | 38 | 52 | – | COc1cc(-c2cc(N3CCC(CCN)CC3)n3ncnc(N)c23)ccc1NC(=O)OC(C)(C)C [Example 107, tert-butyl (4-(4-amino-7-(4-(2-aminoethyl)piperidin-1-yl)pyrrolo[2,1-f][1,2,4]triazin-5-yl)-2-methoxyphenyl)carbamate] | –
15 | 100 to 1000 | ≥ 7.00 | – | 56 | 80 | COc1cc(-c2cc(N3CCC(CN)CC3)n3ncnc(N)c23)ccc1NC(=O)OC(C)(C)C [Example 59, tert-butyl (4-(4-amino-7-(4-(aminomethyl)piperidin-1-yl)pyrrolo[2,1-f][1,2,4]triazin-5-yl)-2-methoxyphenyl)carbamate] | –
16 | 100 to 1000 | – | – | 50 | 77 | COc1cc(-c2cc(N[C@H]3CC[C@@H](N)CC3)n3ncnc(N)c23)ccc1NC(=O)OC(C)(C)C [Example 121, tert-butyl (4-(4-amino-7-(((1s,4s)-4-aminocyclohexyl)amino)pyrrolo[2,1-f][1,2,4]triazin-5-yl)-2-methoxyphenyl)carbamate] | –
17 | ≤ 100 | ≥ 7.00 | – | – | – | COc1cc(-c2cc(N3CCC(C)(CN)CC3)n3ncnc(N)c23)ccc1NC(=O)OC(C)(C)C [Example 123, tert-butyl (4-(4-amino-7-(4-(aminomethyl)-4-methylpiperidin-1-yl)pyrrolo[2,1-f][1,2,4]triazin-5-yl)-2-methoxyphenyl)carbamate] | –
18 | 100 to 1000 | – | – | 40 | 78 | COc1cc(-c2cc(NC3CCNCC3)n3ncnc(N)c23)ccc1NC(=O)OC(C)(C)C [Example 120, tert-butyl (4-(4-amino-7-(piperidin-4-ylamino)pyrrolo[2,1-f][1,2,4]triazin-5-yl)-2-methoxyphenyl)carbamate] | –
19 | ≤ 100 | ≥ 7.00 | – | 41 | 78 | COc1cc(-c2cc(N3CCC(N)C(C)(C)C3)n3ncnc(N)c23)ccc1NC(=O)OC(C)(C)C (stereo not drawn) [Example 94, tert-butyl (4-(4-amino-7-(4-amino-3,3-dimethylpiperidin-1-yl)pyrrolo[2,1-f][1,2,4]triazin-5-yl)-2-methoxyphenyl)carbamate] | –
20 | ≤ 100 | ≥ 7.00 | 38 | 52 | – | CNCCC1CCN(c2cc(-c3ccc(NC(=O)OC(C)(C)C)c(OC)c3)c3c(N)ncnn23)CC1 [Example 108, tert-butyl (4-(4-amino-7-(4-(2-(methylamino)ethyl)piperidin-1-yl)pyrrolo[2,1-f][1,2,4]triazin-5-yl)-2-methoxyphenyl)carbamate] | –
21 | 100 to 1000 | – | 29 | 60 | – | COc1cc(-c2cc(N[C@H]3CC[C@H](N(C)C)C3)n3ncnc(N)c23)ccc1NC(=O)OC(C)(C)C [Example 112, tert-butyl (4-(4-amino-7-(((1S,3S)-3-(dimethylamino)cyclopentyl)amino)pyrrolo[2,1-f][1,2,4]triazin-5-yl)-2-methoxyphenyl)carbamate] | could be inhibited even at a low concentration of 1 nM
22 | 100 to 1000 | – | – | 60 | 87 | COc1cc(-c2cc(N3CCC4(CCN(C)C4)CC3)n3ncnc(N)c23)ccc1NC(=O)OC(C)(C)C [Example 22, tert-butyl (4-(4-amino-7-(2-methyl-2,8-diazaspiro[4.5]decan-8-yl)pyrrolo[2,1-f][1,2,4]triazin-5-yl)-2-methoxyphenyl)carbamate] | –
23 | ≤ 100 | – | – | 69 | 86 | COc1cc(-c2cc(N3CCC(CN(C)C)CC3)n3ncnc(N)c23)ccc1NC(=O)OC(C)(C)C [Example 19, tert-butyl (4-(4-amino-7-(4-((dimethylamino)methyl)piperidin-1-yl)pyrrolo[2,1-f][1,2,4]triazin-5-yl)-2-methoxyphenyl)carbamate] | –
